This note sets out measurements from PMC12344293, “A new class of binding-protein dependent solute transporter exemplified by the TAXI-GltS system from Bordetella pertussis” (Communications Biology, 2025).

For data set [1], the target named is T1, BP0403 (Bordetella pertussis, UniProt Q7VSK8, Y219A).
T1 sequence (Q7VSK8 208-503 Y219A): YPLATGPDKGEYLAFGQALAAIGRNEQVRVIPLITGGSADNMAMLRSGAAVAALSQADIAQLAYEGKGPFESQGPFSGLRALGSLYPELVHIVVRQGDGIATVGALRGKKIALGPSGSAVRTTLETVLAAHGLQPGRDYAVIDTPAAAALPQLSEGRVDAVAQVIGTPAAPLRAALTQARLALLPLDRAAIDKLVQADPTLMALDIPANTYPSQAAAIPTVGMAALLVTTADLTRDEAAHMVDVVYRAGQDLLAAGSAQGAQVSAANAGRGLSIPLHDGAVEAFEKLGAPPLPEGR
Nature of the data set: intrinsic tyrosine fluorescence titration. It is filed as binding.

Data set [2] addresses T2, BP0403 (Bordetella pertussis, UniProt Q7VSK8, Q263A).
T2 sequence (Q7VSK8 208-503 Q263A): T1 sequence (Q7VSK8 208-503 Y219A)
Nature of the data set: intrinsic tyrosine fluorescence titration. It is filed as binding.

Data set [3] has as its target T3, BP0403 (Bordetella pertussis, UniProt Q7VSK8).
T3 construct: BP0403SBP (residues 208–503), isolated C-terminal SBP domain; full-length BP0403FL (without signal peptide) also shifted in DSF
Nature of the data set: intrinsic tyrosine fluorescence titration (n = […]); DSF shift on full-length protein and SBP domain. It counts as binding.

Data set [4] concerns the molecule itself. Briefly: SEC; Superdex 200 Increase 10/300 GL, 0.5 ml/min, SEC buffer (50 mM Tris-HCl pH 8, 100 mM NaCl, 5% glycerol); IMAC eluate incubated 20 min at room temperature with 5 mM EDTA and 100 mM glycerol before loading; elution volume compared with a calibration curve of molecular weight standards. A general note: Size exclusion chromatography separates by hydrodynamic size, large species first.

With `N[C@@H](CCC(=O)O)C(=O)O` [L-glutamate], the figures for the Kd at BP0403 [1], on BP0403 [2] and on BP0403 [3] were 31 ± 6 µM, 45 ± 3 µM and 0.18 ± 0.032 µM, respectively.

B1: full-length BP0403 (BP0403FL) (natural protein, Bordetella pertussis, UniProt Q7VSK8 20-503, looked up)
chain: SRAPDTEILQRDVGQTLAATYGPDLFDIVALRRMGSATDSTAPPGQTRRVVYYDVVLGLKKDLTLGAWDQPGAAALVSLLGAGPRSISGVKSSGNAAGDQIVAHASAIYQRDAEQWVHVAPASFTATEAPSLDTGAPPPVTRQLLQTLEQITRSVPYSASSTAQHVVQQELERSVARINGRLARLQKGYPLATGPDKGEYLAFGQALAAIGRNEQVRVIPLITGGSADNMAMLRSGAAVAALSQADIAQLAYEGKGPFESQGPFSGLRALGSLYPELVHIVVRQGDGIATVGALRGKKIALGPSGSAVRTTLETVLAAHGLQPGRDYAVIDTPAAAALPQLSEGRVDAVAQVIGTPAAPLRAALTQARLALLPLDRAAIDKLVQADPTLMALDIPANTYPSQAAAIPTVGMAALLVTTADLTRDEAAHMVDVVYRAGQDLLAAGSAQGAQVSAANAGRGLSIPLHDGAVEAFEKLGAPPLPEGR
notes: Codon optimised synthetic gene; also called BP0403 wildtype; source: E. coli BL21 (DE3), pET151, purified (Ni-NTA, SEC)
With B1, the stoichiometry N (usually the number of molecules, sites or subunits per partner or assembly) in data set [4] was 2.
